From paper PMC9897792, “Discovery of novel 2-(4-(benzyloxy)-5-(hydroxyl) phenyl) benzothiazole derivatives as multifunctional MAO-B inhibitors for the treatment of Parkinson’s disease” (Journal of Enzyme Inhibition and Medicinal Chemistry, 2023)
Where “and” joins values, the source holds several entries; their conditions need not be identical. Equal values may be shown once.

Experiments:
[1] = Oxygen radical absorbance capacity assay with fluorescein (ORAC-FL); settings: Trolox as standard
Description: Oxygen radical absorbance capacity assay which used fluorescein (ORAC-FL) was performed to measure the antioxidant activities of 2-(4-(benzyloxy)-5-(hydroxyl) phenyl) benzothiazole derivatives. […] It reflected that introduction of alkyl substituents on benzyloxy ring was more beneficial for the improvement of in vitro antioxidant activity. However, the position and number of substituents seem to have little influence on the antioxidative activities.
Test compounds solution (20 µL, 10 µM) and fluorescein solution (120 µL, 250 nM) were added to a black 96-wells plate in order. The mixture was incubated for 15 min at 37 °C. Then, AAPH solution (60 µL, 40 mM) was added through an automatic sampler. The fluorescence was recorded with excitation and emission wavelengths at 485 and 535 nm on the multifunctional enzyme marker (Thermo Scientific), and the area under the curve (AUC) was calculated automatically. Trolox was used as a reference, and the antioxidant activities of the compounds were expressed as Trolox equivalent. The test compound solution was replaced with PBS (20 µL) in blank well. The antioxidant activities of the test compounds were calculated by the formula: [(AUCsample − AUCblank)/(AUCtrolox − AUCblank)] × [(Trolox concentration/test sample concentration)].

[2] = test system: NO release in LPS-activated BV-2 microglia cells; experiment: LPS-induced NO release in BV-2 cells (Griess method); format: cell-based; settings: Mus musculus, LPS 1.0 µg/mL, read-out: inhibitory rate of LPS-induced NO release
Description: Then, Griess method was performed to measure the inhibitory effect of 3h on LPS-induced NO release in BV-2 cells. […] It reflected that LPS could induce the activation of BV-2 cells and induce neuroinflammation.
(§1) ELISA and Griess reaction methods were performed to detect the inhibitory effect of 3h on the release of TNF-α and NO in LPS-stimulated BV-2 cells[46]^,[47]. BV-2 cells in the logarithmic phase were seeded into 96-well cell culture plate, and these cells were incubated at 37 °C for 24 h at the atmosphere of 5% CO2. After incubation, the culture solution was replaced by fresh one (90 µL without serum), and test compound solution (10 µL) was added. After addition, the plate was incubated for 30 min, then LPS (10 µL, 1.0 µg/ml in PBS) was added to each well, and the mixture would be incubated for another 24 h at 37 °C. After the final incubation, the supernatants were taken out to measure the level of TNF-α and NO according to the procedures depicted on the kits (kits were purchased from Nanjing Jiancheng Bioengineering Institute).

[3] = test system: TNF-α production in LPS-activated BV-2 microglia cells; experiment: LPS-induced TNF-α production in BV-2 cells (ELISA); format: cell-based; settings: Mus musculus, LPS 1.0 µg/mL, read-out: inhibition rate of LPS-induced TNF-α production
Description: ELISA method was carried out to detect the inhibitory effects of 3h on LPS-induced TNF-α production. As shown in Figure 8(B), the level of TNF-α expression was dramatically raised when BV-2 cells were exposed to LPS (1.0 µg/mL).
as §1

Oc1cc(OCc2ccc(F)cc2)ccc1-c1nc2ccccc2s1 [3h, 2-(Benzo[d]thiazol-2-yl)-5-((4-fluorobenzyl)oxy)phenol]
ORAC [1]: 2.27 Trolox equivalents and 2.27 ± 0.08 Trolox equivalents
inhibition at 0.5 µM ([2]; 0.5 µM): 15.8%
inhibition at […] ([2]; 2.5 µM): 35.8%
inhibition at 10 µM ([2]; 10.0 µM): 63.7%
inhibition at 0.5 µM ([3]; 0.5 µM): 7.8%
inhibition at […] ([3]; 2.5 µM): 25.7%
inhibition at 10 µM ([3]; 10.0 µM): 52.5%
